# Experimental data taken from PubChem BioAssay AID1845212 (Molecular Pharmacology Branch, DTP, NCI, 2023).
# pIC50: −log10 of the molar value.
# System: NCI-H719 tumor spheroids, viability
# Experiment: Anticancer human tumor NCI-H719 cell line growth inhibition;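 further: spheroids exposed to compounds for seven days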;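 on viability, T/C: percent viability relative to DMSO vehicle control as 100%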
# Conditions: spheroids with HUVEC and MSC; for pIC50: curve of first compound; for viability, T/C: stronger effect = lower value
# Text: Multicellular complex tumor spheroid response to DNA repair inhibitors in combination with DNA-damaging drugs
# This study explores the anticancer activities of DNA-damaging drugs and inhibitors of DNA damage repair, both as single agents and in combinations. Complex tumor spheroids comprised of malignant cells, endothelial cells and mesenchymal stem cells served as an in vitro model for human solid tumors. This model system incorporates physiologically relevant features and patient-derived or established malignant cell lines with clinically relevant genetic alterations from many tumor types. Twenty-six patient-derived or established malignant cell lines were evaluated representing sarcoma, melanoma, small cell lung cancer (SCLC), non-small cell lung cancer (NSCLC), as well as bladder, ovarian and pancreatic cancers. The concentration ranges selected for each drug and investigational agent were based upon clinically achievable concentrations if the clinical Cmax of the agent was known.
# Compounds. The drugs and compounds olaparib (NSC753686), talazoparib (NSC767125), berzosertib (NSC777718), elimusertib (NSC800525), nedisertib (NSC802822), VX-984 (NSC792969), AZD-1390 (NSC803789), temozolomide (NSC362856), topotecan (NSC609699), trabectedin (NSC813783), staurosporine (NSC755774), and gemcitabine (NSC613327) were obtained from the National Cancer Institute (NCI) Developmental Therapeutics Program Chemical Repository. The FDA-approved anticancer drug set is available from the Developmental Therapeutics Program at https://dtp.cancer.gov/organization/dscb/obtaining/available_plates.htm. […] The stock solutions were prepared in dimethyl sulfoxide (DMSO, Sigma-Aldrich, St. Louis, MO, cat. D2650) at 400-fold the tested concentration and stored at -70 degrees C. Prior to their use, the stock solutions were diluted in fresh medium and the final DMSO concentration in the assay was 0.25% (v/v). All drugs and investigational agents were tested over a range starting from a high concentration at or near the clinical Cmax and decreasing in half-log increments. If the clinical Cmax for an agent had not been determined, the highest concentration tested was 10 microM.
# Cell Lines. The patient-derived cancer cell (PDC) lines: 156681-154-R-J1-PDC, 283228-195-R-J1-PDC, 287954-098-R-J1-PDC, 292921-168-R-J2-PDC, 349418-098-R-PDC, 425362-245-T-J1-PDC, 556581-035-R-J1-PDC, and BL0293-F563-PDC were received from the NCI Patient-Derived Models Repository (PDMR, https://pdmr.cancer.gov). The established cell lines HS-SY-2 (RRID:CVCL_8719), MPNST, and SYO-1 (RRID:CVCL_7146) were obtained from the Sloan Kettering Institute. The alveolar soft parts sarcoma cell line ASPS-1 (RRID:CVCL_S738) was established at the NCI and grown from internal seed stocks. The following established cell lines were purchased from the American Type Culture Collection (ATCC, Manassas, VA): G-401 (ATCC, cat. CRL-1441, RRID:CVCL_0270), SW982 (ATCC, cat. HTB-93, RRID:CVCL_1734), VA-ES-BJ (ATCC, cat. CRL-2138, RRID:CVCL_1785), NCI-H719 (ATCC, cat. CRL-5837, RRID:CVCL_1582), NCI-H196 (ATCC, cat. CRL-5823, RRID:CVCL_1509), NCI-H841 (ATCC, cat. CRL-5845, RRID:CVCL_1595), NCI-H1618 (ATCC, cat. CRL-5879, RRID:CVCL_1480), NCI-H1876 (ATCC, cat. CRL-5902, RRID:CVCL_1503), DMS 114 (ATCC, cat. CRL-2066; RRID:CVCL_1174), NCI-H211 (ATCC, cat. CRL-5824; RRID:CVCL_1529), and SW 1271 (ATCC, cat. CRL-2177, RRID:CVCL_1716). The small cell lung cancer cell line COR-L88 was purchased from Sigma-Aldrich (cat. 92031917-1VL, RRID:CVCL_1141). The non-small cell lung cancer cell lines NCI-H226 (RRID:CVCL_1544) and NCI-H322M (RRID:CVCL_1557) were established at the NCI and grown from internal seed stocks. Pooled donor human umbilical vein endothelial cells (HUVEC, Lonza, cat. CC-2519) and human mesenchymal stem cells (hMSC, Lonza, cat. PT-2501) were purchased from Lonza (Walkersville, MD).
# Cell Culture. All cells were maintained in an incubator at 37 degrees C and 5% CO2 with 95% humidity. […]
smiles,measurement,setting,value
COc1ccc([C@@H](O)c2cc(-c3ncnc4cc(N5CCOCC5)ccc34)c(F)cc2Cl)nn1 + CC[C@@]1(O)C(=O)OCc2c1cc1n(c2=O)Cc2cc3c(CN(C)C)c(O)ccc3nc2-1,pIC50,second compound 0.003 µM,> 7.50
same,pIC50,second compound 0.00949 µM,> 7.50
same,pIC50,second compound 0.03 µM,> 7.50
same,pIC50,second compound 0.0949 µM,> 7.50
same,pIC50,second compound 0.3 µM,> 7.50
same,"viability, T/C","second compound 0.003 µM, first compound 0.0316 µM",42.3%
same,"viability, T/C","second compound 0.003 µM, first compound 0.1 µM",46.7%
same,"viability, T/C","second compound 0.003 µM, first compound 0.316 µM",42.6%
same,"viability, T/C","second compound 0.003 µM, first compound 1 µM",38.4%
same,"viability, T/C","second compound 0.003 µM, first compound 3.16 µM",30.1%
same,"viability, T/C","second compound 0.003 µM, first compound 10 µM",10.6%
same,"viability, T/C","second compound 0.00949 µM, first compound 0.0316 µM",8.42%
same,"viability, T/C","second compound 0.00949 µM, first compound 0.1 µM",6.63%
same,"viability, T/C","second compound 0.00949 µM, first compound 0.316 µM",6.02%
same,"viability, T/C","second compound 0.00949 µM, first compound 1 µM",6.07%
same,"viability, T/C","second compound 0.00949 µM, first compound 3.16 µM",6.61%
same,"viability, T/C","second compound 0.00949 µM, first compound 10 µM",5.88%
same,"viability, T/C","second compound 0.03 µM, first compound 0.0316 µM",5.79%
same,"viability, T/C","second compound 0.03 µM, first compound 0.1 µM",6.19%
same,"viability, T/C","second compound 0.03 µM, first compound 0.316 µM",5.16%
same,"viability, T/C","second compound 0.03 µM, first compound 1 µM",5.17%
same,"viability, T/C","second compound 0.03 µM, first compound 3.16 µM",4.89%
same,"viability, T/C","second compound 0.03 µM, first compound 10 µM",3.08%
same,"viability, T/C","second compound 0.0949 µM, first compound 0.0316 µM",6.51%
same,"viability, T/C","second compound 0.0949 µM, first compound 0.1 µM",7.08%
same,"viability, T/C","second compound 0.0949 µM, first compound 0.316 µM",5.96%
same,"viability, T/C","second compound 0.0949 µM, first compound 1 µM",5.16%
same,"viability, T/C","second compound 0.0949 µM, first compound 3.16 µM",3.45%
same,"viability, T/C","second compound 0.0949 µM, first compound 10 µM",1.55%
same,"viability, T/C","second compound 0.3 µM, first compound 0.0316 µM",7.33%
same,"viability, T/C","second compound 0.3 µM, first compound 0.1 µM",7.08%
same,"viability, T/C","second compound 0.3 µM, first compound 0.316 µM",6.09%
same,"viability, T/C","second compound 0.3 µM, first compound 1 µM",3.58%
same,"viability, T/C","second compound 0.3 µM, first compound 3.16 µM",1.58%
same,"viability, T/C","second compound 0.3 µM, first compound 10 µM",1.36%
O=C(c1cc(Cc2n[nH]c(=O)c3ccccc23)ccc1F)N1CCN(C(=O)C2CC2)CC1 + Cn1nnc2c(C(N)=O)ncn2c1=O,pIC50,second compound 1 µM,5.76
same,pIC50,second compound 3.16 µM,5.87
same,pIC50,second compound 10 µM,5.71
same,pIC50,second compound 31.6 µM,> 7.02
same,pIC50,second compound 100 µM,> 7.02
same,"viability, T/C","second compound 1 µM, first compound 0.0949 µM",73.7%
same,"viability, T/C","second compound 1 µM, first compound 0.3 µM",56%
same,"viability, T/C","second compound 1 µM, first compound 0.949 µM",56.1%
same,"viability, T/C","second compound 1 µM, first compound 3 µM",42.1%
same,"viability, T/C","second compound 1 µM, first compound 9.49 µM",7.25%
same,"viability, T/C","second compound 1 µM, first compound 30 µM",6.89%
same,"viability, T/C","second compound 3.16 µM, first compound 0.0949 µM",64.2%
same,"viability, T/C","second compound 3.16 µM, first compound 0.3 µM",60.5%
same,"viability, T/C","second compound 3.16 µM, first compound 0.949 µM",67%
same,"viability, T/C","second compound 3.16 µM, first compound 3 µM",19.5%
same,"viability, T/C","second compound 3.16 µM, first compound 9.49 µM",20.2%
same,"viability, T/C","second compound 3.16 µM, first compound 30 µM",7.9%
same,"viability, T/C","second compound 10 µM, first compound 0.0949 µM",55.8%
same,"viability, T/C","second compound 10 µM, first compound 0.3 µM",66.7%
same,"viability, T/C","second compound 10 µM, first compound 0.949 µM",56%
same,"viability, T/C","second compound 10 µM, first compound 3 µM",43.9%
same,"viability, T/C","second compound 10 µM, first compound 9.49 µM",29.8%
same,"viability, T/C","second compound 10 µM, first compound 30 µM",7.79%
same,"viability, T/C","second compound 31.6 µM, first compound 0.0949 µM",52.4%
same,"viability, T/C","second compound 31.6 µM, first compound 0.3 µM",53.3%
same,"viability, T/C","second compound 31.6 µM, first compound 0.949 µM",34.1%
same,"viability, T/C","second compound 31.6 µM, first compound 3 µM",40.7%
same,"viability, T/C","second compound 31.6 µM, first compound 9.49 µM",42.8%
same,"viability, T/C","second compound 31.6 µM, first compound 30 µM",6.8%
same,"viability, T/C","second compound 100 µM, first compound 0.0949 µM",43.5%
same,"viability, T/C","second compound 100 µM, first compound 0.3 µM",21.9%
same,"viability, T/C","second compound 100 µM, first compound 0.949 µM",29.4%
same,"viability, T/C","second compound 100 µM, first compound 3 µM",51.8%
same,"viability, T/C","second compound 100 µM, first compound 9.49 µM",7.29%
same,"viability, T/C","second compound 100 µM, first compound 30 µM",7.19%
